# Results published in patent US20070059382A1 (Board of Regents, Univ. and Comm. College System of …, priority 2005, published 2007).
# Several values for one entry are separate records, joined by “and”; a condition that tells them apart may be missing. Equal values may be shown once. Entries after “also recorded” stand apart in the source; their conditions may differ. Read-outs that look alike come from different tables or passages of the source.
# What was measured:
# ZR-75-1 [1] = assay: Cell attachment (reattachment after trypsin harvest)
# MCF-7 [2] = assay: as above
# [3] = in vivo; cited from earlier work
# HeLa cells = assay: Growth of HeLa cells (express the NaBC1 transporter); format: cell-based; conditions: 1 mM
# ZR-75-1 [4] = assay: Detachment of growing cells (attached and floating cells); format: cell-based, human; conditions: seven days, 0.5 to 10 mM boric acid
# Source text: We quantified the attached and floating cells. The data is shown below in FIG. 7.
# MCF-7 [5] = conditions: 1 mM
# ZR-75-1 [6] = system: ZR-75-1
# DU-145 = conditions: cited from earlier work
# PC-3 = conditions: cited from earlier work
# LNCaP = conditions: cited from earlier work
# [7] = system: non-tumorigenic prostate cell lines; conditions: cited from earlier work
# [8] = system: cyclins A-E and MAPK proteins; conditions: cited from earlier work
# DU-145 cells = conditions: cited from earlier work
# LNCaP tumor = conditions: nude mice, 1.7 and 9.0 mgB/Kg/day; cited from earlier work
# [9] = in vivo; cited from earlier work; remark: listed apart in the source
# [10] = humans, chronic (about 1 g of boric acid); cited from earlier work
# [11] = treated three days, then boric acid removed
smiles,measurement,setting,value
"[Cl][Mn][Cl] [MnCl2, reference compound]",effect on cell attachment,ZR-75-1 [1],stimulates attachment
same,percentage of cells that had reattached,ZR-75-1 [1],42.6 ± 12.0% and 67.3 ± 12.0% and 70.2 ± 1.4% and 77.8 ± 13.6%
same,effect on cell attachment,MCF-7 [2],stimulates attachment
same,percentage of cells that had reattached,MCF-7 [2],53.9 ± 12.3% and 69.4 ± 2.9% and 74.9 ± 3.6% and 81.5 ± 9.9%
[B] [boron],Tolerable Upper Intake Level (UL),[3],20 mg/day
OB(O)O [boric acid],growth inhibition,HeLa cells,very little inhibition
same,cell detachment / floating cells,ZR-75-1 [4],causing breast cancer cells to detach and undergo apoptosis; also recorded: cells were seen floating in the media
same,growth inhibition,MCF-7 [5],not growth inhibited; also recorded: no growth inhibition; also recorded: much less sensitive
same,growth inhibition,ZR-75-1 [6]; 1 mM,sensitive; also recorded: growth inhibition; also recorded: very sensitive
same,time to resume normal growth rate after boric acid removal,ZR-75-1 [6]; [11],about three
same,growth inhibition,SK-BR-3; 1 mM,growth inhibition
same,time to resume normal growth rate after boric acid removal,SK-BR-3; [11],about three
same,growth inhibition,DU-145,inhibits the growth
same,growth inhibition,DU-145; listed as BA,sensitive
same,growth inhibition,PC-3,inhibits the growth
same,growth inhibition,PC-3; listed as BA,much less sensitive
same,growth inhibition,LNCaP,inhibits the growth
same,growth inhibition,LNCaP; listed as BA,much less sensitive
same,growth inhibition,[7],not
same,change in cyclins A-E and MAPK proteins,[8],dose-dependent reduction
same,"adhesion, migration and invasion potential",DU-145 cells,reduced
same,inhibition of LNCaP tumor growth,LNCaP tumor,about 30%
same,fraction excreted in the urine,[9],about 85%
same,half-life,[9],about 21 hrs
same,time to excretion in the urine after ingestion,[9],≤ 24 h
same,chronic intake with no adverse effects,[10],2.5 mg/kg/day
same,effect on cell attachment,"ZR-75-1 [1]; ZR-75-1, 1 mM (Experiments 1, 2)",inhibit the attachment; also recorded: inhibited their reattachment
same,effect on cell attachment,"ZR-75-1 [1]; ZR-75-1, 1 mM (Experiments 1, 2), listed as BA",did not
same,percentage of cells that had reattached,"ZR-75-1 [1]; ZR-75-1, 30 min, 1 mM each compound",24.5 ± 5.2%
same,percentage of cells that had reattached,"ZR-75-1 [1]; ZR-75-1, 60 min, 1 mM each compound",74.1 ± 26.1%
same,percentage of cells that had reattached,"ZR-75-1 [1]; ZR-75-1, 90 min, 1 mM each compound",98.2 ± 34.0%
same,percentage of cells that had reattached,"ZR-75-1 [1]; ZR-75-1, 120 min, 1 mM each compound",104.0 ± 16.1%
same,effect on cell attachment,"MCF-7 [2]; MCF-7, 1 mM (Experiments 3, 4)",did not
same,percentage of cells that had reattached,"MCF-7 [2]; MCF-7, 30 min, 1 mM each compound",53.5 ± 3.0%
same,percentage of cells that had reattached,"MCF-7 [2]; MCF-7, 60 min, 1 mM each compound",92.6 ± 9.1%
same,percentage of cells that had reattached,"MCF-7 [2]; MCF-7, 90 min, 1 mM each compound",105.7 ± 6.8%
same,percentage of cells that had reattached,"MCF-7 [2]; MCF-7, 120 min, 1 mM each compound",97.5 ± 4.1%
